This assay has as its system PAF-induced hypotension. Nature of the assay: Inhibition of PAF-induced hypotension. The conditions noted are these: Rattus norvegicus, iv; 50% inhibitory dose from dose-response curve for inhibition of PAF-induced hypotension; rats; read-out: Inhibition of Hypotension ID50. It counts as in vivo, rats of the Wistar-Imamichi strain. On the procedure: The test animals employed were rats of the Wistar-Imamichi strain, each weighing between 350 and 450 g.
Under Inactin anesthesia (90 mg/kg administered intraperitoneally) the left femoral artery and vein of each test animal were cannulated to enable the arterial blood pressure to be monitored continuously and for drug administration, respectively. At intervals of about 5 minutes, each animal was given by intravenous injection 10 ng/kg of synthetic I-C16:0 PAF until a steady hypotensive response was achieved. At this time, the drug to be tested was administered by intravenous injection in doses increasing cumulatively by a factor of 4. Within I minute of this injection, a further 10 ng/kg of the IC16:0 PAF was administered. The hypotensive response to PAF was inhibited by the test drug in a dose-related manner.
The PAF was administered in the form of a solution in physiological saline containing 0.25% w/v bovine serum albumin. The test drugs were dissolved in physiological saline containing 20% v/v ethanol.
The 50% inhibitory dose (ID 50 ) was calculated from the dose-response curve constructed for the inhibition of PAF-induced hypotension.
This test was carried out using compounds of the invention, as well as the prior art compound CV-3988, disclosed in US Patent No. 4,408,052 and represented by the foregoing formula (B).

Consider `CCCCCCCCCCCCCCCCCCNC(=O)OCC(COP(=O)([O-])OCC[n+]1ccsc1)OC` (stereo not shown) [CV - 3988], for which the ED50 came to 0.42 mg/kg.

The values are drawn from EP0251827A2, “New cyclic ether derivatives, their preparation and their use” (Sankyo Company Limited, priority 1986, dated 1988).
